Laboratory results as given in patent publication US20240425501A1, “NOVEL BICYCLIC HETEROARYL DERIVATIVES AS SOS1:KRAS PROTEINPROTEIN INTERACTION INHIBITORS” (SATYARX PHARMA INNOVATIONS PVT LTD, priority 2021, published 2024).

These compounds were tested against T1, hSOS1 enzyme / KRAS (G12C), GST-Tag, GDP-bound protein (Homo sapiens, UniProt Q07889) (assay: SOS1-mediated KRAS guanine nucleotide exchange (GEF) assay, HTRF ("On Assay")). Conditions: 1 μM compound.
T1 sequence (Q07889 564-1049 limits assumed): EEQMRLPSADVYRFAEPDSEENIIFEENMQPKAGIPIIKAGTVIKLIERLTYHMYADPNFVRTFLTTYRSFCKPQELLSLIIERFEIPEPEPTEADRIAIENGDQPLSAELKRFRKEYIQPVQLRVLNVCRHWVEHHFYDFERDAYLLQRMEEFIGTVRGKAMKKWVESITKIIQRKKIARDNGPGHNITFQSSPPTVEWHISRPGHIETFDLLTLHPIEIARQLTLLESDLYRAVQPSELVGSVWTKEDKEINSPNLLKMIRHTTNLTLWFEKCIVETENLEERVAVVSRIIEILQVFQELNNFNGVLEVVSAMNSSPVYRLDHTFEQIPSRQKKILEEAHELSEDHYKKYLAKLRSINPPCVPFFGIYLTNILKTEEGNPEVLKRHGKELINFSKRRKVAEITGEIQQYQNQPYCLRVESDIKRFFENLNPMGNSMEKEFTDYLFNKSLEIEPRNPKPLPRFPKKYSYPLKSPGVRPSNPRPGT
Format: biochemical
Procedure: Biochemical Assay: Measurement of SOS1-Mediated KRAS Guanine Nucleotide Exchange (GEF) Assay
This assay quantifies the HTRF-based SOS1 mediated guanine nucleotide exchange assay detecting GTP binding to KRAS (G12C), GST-Tag, GDP-bound protein. This is also referred as “On Assay”.The assay buffer composition is as follows: 10 mM HEPES pH-7, 150 mM NaCl, 5 mM MgCl2, 1 mM DTT, 0.05% BSA, 0.0025% IGEPAL CA-630 and MilliQ water. 0.5 μl of compounds diluted in assay buffer were dispensed into the respective wells of 384 black well test plate. 4.75 μl of KRAS working solution containing 100 nM KRAS (G12C), GST-Tag, GDP-bound protein GDP-loaded (Reaction biology) and 2 nM Anti GST-Tb cryptate (FRET donor, Cisbio) was added in assay buffer. The components were incubated for 10 min at 25° C.
4.75 μl of hSOS1 working solution containing 20 nM hSOS1 enzyme and 200 nM EDA-GTP-DY-647P (FRET acceptor, synthesized by Jena Bioscience (Germany), supplied as a 1 mM solution) was further added in assay buffer. 4.75 μl of inhibitor control having only 200 nM EDA-GTP-DY-647P1 component without hSOS1 working solution was added in the negative control well. The plate was short spun for few seconds and incubated for 10 min. HTRF was measured using Perkin Elmer-Nivo 5F multimode plate reader.
HTRF settings: EXCITATION FILTER—320/75 nm, EMISSION FILTER (1) —615/8 nm, EMISSION FILTER (2)—665/8 nm
With `C[C@@H](Nc1nc(Cl)nc2ncc(N3CCOCC3)cc12)c1cc(N)cc(C(F)(F)F)c1` [Example 84, (R)—N-(1-(3-amino-5-(trifluoromethyl)phenyl)ethyl)-2-chloro-6-morpholinopyrido[2,3-d]pyrimidin-4-amine] the inhibition at 1 µM was at least 50%. `COCCNc1nc(N[C@H](C)c2cc(N)cc(C(F)(F)F)c2)c2cc(N3CCOCC3)ncc2n1` [Example 36, (R)—N4-(1-(3-amino-5-(trifluoromethyl)phenyl)ethyl)-N2-(2-methoxyethyl)-6-morpholinopyrido[3,4-d]pyrimidine-2,4-diamine] was tested, and the inhibition at 1 µM was at least 50%. Compound `C[C@@H](Nc1nc(N2CCOCC2)nc2cnc(N3CCCC3)cc12)c1cc(N)cc(C(F)(F)F)c1` [Example 5, (R)—N-(1-(3-amino-5-(trifluoromethyl)phenyl)ethyl)-2-morpholino-6-(pyrrolidin-1-yl)pyrido[3,4-d]pyrimidin-4-amine] has an inhibition at 1 µM of under 50%. `C[C@@H](Nc1nc(N2CCC2)nc2cnc(N3CCC(F)(F)CC3)cc12)c1cc(N)cc(C(F)(F)F)c1` [Example 51, (R)—N-(1-(3-amino-5-(trifluoromethyl)phenyl)ethyl)-2-(azetidin-1-yl)-6-(4,4-difluoropiperidin-1-yl)pyrido[3,4-d]pyrimidin-4-amine] gave an inhibition at 1 µM of at least 50%. `C[C@@H](Nc1nc(N2CCN(C)CC2)nc2cnc(N3CCCC3)cc12)c1cc(N)cc(C(F)(F)F)c1` [Example 6, (R)—N-(1-(3-amino-5-(trifluoromethyl)phenyl)ethyl)-2-(4-methylpiperazin-1-yl)-6-(pyrrolidin-1-yl)pyrido[3,4-d]pyrimidin-4-amine] showed an inhibition at 1 µM of under 50%. Work on `CNc1nc(N[C@H](C)c2cc(N)cc(C(F)(F)F)c2)c2cc(N3CCN(C)CC3)ncc2n1` [Example 31, (R)—N4-(1-(3-amino-5-(trifluoromethyl)phenyl)ethyl)-N2-methyl-6-(4-methylpiperazin-1-yl)pyrido[3,4-d]pyrimidine-2,4-diamine] yielded an inhibition at 1 µM of at least 50%. `COc1nc(N[C@H](C)c2cc(N)cc(C(F)(F)F)c2)c2cc(N3CCOCC3)ncc2n1` [Example 57, (R)—N-(1-(3-amino-5-(trifluoromethyl)phenyl)ethyl)-2-methoxy-6-morpholinopyrido[3,4-d]pyrimidin-4-amine] showed an inhibition at 1 µM of at least 50%. In the case of `C[C@@H](Nc1nc(Cl)nc2cnc(C3CCOCC3)cc12)c1cc(N)cc(C(F)(F)F)c1` [Example 63, (R)—N-(1-(3-amino-5-(trifluoromethyl)phenyl)ethyl)-2-chloro-6-(tetrahydro-2H-pyran-4-yl)pyrido[3,4-d]pyrimidin-4-amine], the inhibition at 1 µM is reported as at least 50%. `C[C@@H](Nc1nc(NCCN(C)C)nc2cnc(N3CCCC3)cc12)c1cc(N)cc(C(F)(F)F)c1` [Example 9, (R)—N4-(1-(3-amino-5-(trifluoromethyl)phenyl)ethyl)-N2-(2-(dimethylamino)ethyl)-6-(pyrrolidin-1-yl)pyrido[3,4-d]pyrimidine-2,4-diamine] was tested, and the inhibition at 1 µM was at least 50%. For `CCN1CCN(c2cc3c(N[C@H](C)c4cc(N)cc(C(F)(F)F)c4)nc(Cl)nc3cn2)CC1` [Example 24, (R)—N-(1-(3-amino-5-(trifluoromethyl)phenyl)ethyl)-2-chloro-6-(4-ethylpiperazin-1-yl)pyrido[3,4-d]pyrimidin-4-amine], the inhibition at 1 µM was at least 50%. `COCC(=O)Nc1nc(N[C@H](C)c2cc(N)cc(C(F)(F)F)c2)c2cc(N3CCCC3)ncc2n1` [Example 76, (R)—N-(4-((1-(3-amino-5-(trifluoromethyl)phenyl)ethyl)amino)-6-(pyrrolidin-1-yl)pyrido[3,4-d]pyrimidin-2-yl)-2-methoxyacetamide] showed an inhibition at 1 µM of under 50%. In the case of `CCN1CCN(c2cc3c(N[C@H](C)c4cc(N)cc(C(F)(F)F)c4)cnnc3cn2)CC1` [Example 85, (R)—N-(1-(3-amino-5-(trifluoromethyl)phenyl)ethyl)-6-(4-ethylpiperazin-1-yl)pyrido[3,4-c]pyridazin-4-amine], the inhibition at 1 µM is reported as at least 50%. `CNc1nc(N[C@H](C)c2cc(N)cc(C(F)(F)F)c2)c2cc(N3CCC(F)CC3)ncc2n1` [Example 33, (R)—N4-(1-(3-amino-5-(trifluoromethyl)phenyl)ethyl)-6-(4-fluoropiperidin-1-yl)-N2-methylpyrido[3,4-d]pyrimidine-2,4-diamine] showed an inhibition at 1 µM of at least 50%. `CNc1nc(N[C@H](C)c2cc(N)cc(C(F)(F)F)c2)c2cc(C3CCOCC3)ncc2n1` [Example 66, (R)—N4-(1-(3-amino-5-(trifluoromethyl)phenyl)ethyl)-N2-methyl-6-(tetrahydro-2H-pyran-4-yl)pyrido[3,4-d]pyrimidine-2,4-diamine] showed an inhibition at 1 µM of at least 50%. For `CCN1CCN(c2cnc3cc(Cl)nc(N[C@H](C)c4cc(N)cc(C(F)(F)F)c4)c3c2)CC1` [Example 88, (R)—N-(1-(3-amino-5-(trifluoromethyl)phenyl)ethyl)-7-chloro-3-(4-ethylpiperazin-1-yl)-1,6-naphthyridin-5-amine], the inhibition at 1 µM was at least 50%. `CNCCC(=O)Nc1nc(N[C@H](C)c2cc(N)cc(C(F)(F)F)c2)c2cc(N3CCOCC3)ncc2n1` [Example 79, (R)—N-(4-((1-(3-amino-5-(trifluoromethyl)phenyl)ethyl)amino)-6-morpholinopyrido[3,4-d]pyrimidin-2-yl)-3-(methylamino)propanamide] gave an inhibition at 1 µM of at least 50%. For `C[C@@H](Nc1nc(Cl)nc2cnc(N3CCC(F)(F)CC3)cc12)c1cc(N)cc(C(F)(F)F)c1` [Example 21, (R)—N-(1-(3-amino-5-(trifluoromethyl)phenyl)ethyl)-2-chloro-6-(4,4-difluoropiperidin-1-yl)pyrido[3,4-d]pyrimidin-4-amine], the inhibition at 1 µM was at least 50%. With `C[C@@H](Nc1nc(Cl)nc2ncc(N3CCCCC3)cc12)c1cc(N)cc(C(F)(F)F)c1` [Example 83, (R)—N-(1-(3-amino-5-(trifluoromethyl)phenyl)ethyl)-2-chloro-6-(piperidin-1-yl)pyrido[2,3-d]pyrimidin-4-amine] the inhibition at 1 µM was at least 50%. For `CCC(=O)Nc1nc(N[C@H](C)c2cc(N)cc(C(F)(F)F)c2)c2cc(N3CCCC3)ncc2n1` [Example 75, (R)—N-(4-((1-(3-amino-5-(trifluoromethyl)phenyl)ethyl)amino)-6-(pyrrolidin-1-yl)pyrido[3,4-d]pyrimidin-2-yl)propionamide], the inhibition at 1 µM was under 50%. `C[C@@H](Nc1nc(N2CCCC2=O)nc2cnc(N3CCCC3)cc12)c1cc(N)cc(C(F)(F)F)c1` [Example 34, (R)-1-(4-((1-(3-amino-5-(trifluoromethyl)phenyl)ethyl)amino)-6-(pyrrolidin-1-yl)pyrido[3,4-d]pyrimidin-2-yl)pyrrolidin-2-one] gave an inhibition at 1 µM of at least 50%. With `C[C@@H](Nc1nc(N2CCC2)nc2cnc(N3CCOCC3)cc12)c1cc(N)cc(C(F)(F)F)c1` [Example 37, (R)—N-(1-(3-amino-5-(trifluoromethyl)phenyl)ethyl)-2-(azetidin-1-yl)-6-morpholinopyrido[3,4-d]pyrimidin-4-amine] the inhibition at 1 µM was at least 50%. For `COC1CCN(c2cc3c(N[C@H](C)c4cc(N)cc(C(F)(F)F)c4)nc(Cl)nc3cn2)CC1` [Example 20, (R)—N-(1-(3-amino-5-(trifluoromethyl)phenyl)ethyl)-2-chloro-6-(4-methoxypiperidin-1-yl)pyrido[3,4-d]pyrimidin-4-amine], the inhibition at 1 µM was at least 50%. `CCN1CCN(c2cc3c(N[C@H](C)c4cc(N)cc(C(F)(F)F)c4)nc(N4CCC4)nc3cn2)CC1` [Example 48, (R)—N-(1-(3-amino-5-(trifluoromethyl)phenyl)ethyl)-2-(azetidin-1-yl)-6-(4-ethylpiperazin-1-yl)pyrido[3,4-d]pyrimidin-4-amine] showed an inhibition at 1 µM of at least 50%. With `CC(C)N1CCN(c2cc3c(N[C@H](C)c4cc(N)cc(C(F)(F)F)c4)nc(Cl)nc3cn2)CC1` [Example 25, (R)—N-(1-(3-amino-5-(trifluoromethyl)phenyl)ethyl)-2-chloro-6-(4-isopropylpiperazin-1-yl)pyrido[3,4-d]pyrimidin-4-amine] the inhibition at 1 µM was at least 50%. `C[C@@H](Nc1nc(Cl)nc2cnc(N3CCCC3)cc12)c1cc(N)cc(C(F)(F)F)c1` [Example 1, (R)—N-(1-(3-amino-5-(trifluoromethyl)phenyl)ethyl)-2-chloro-6-(pyrrolidin-1-yl)pyrido[3,4-d]pyrimidin-4-amine] was tested, and the inhibition at 1 µM was at least 50%.
